Structures can show the parent of a compound that is named as a salt.
Legend:
Type in all cases: biochemical
[1] = biological target: T1, recombinant human MAO-B (monoamine oxidase-B) (Homo sapiens, UniProt P27338); assay: Activity evaluation on recombinant human MAO-B (Amplex Red/HRP-coupled assay, 1 mM benzylamine substrate); conditions: 1 mM benzylamine, read-out: Inhibitory Activity (IC50, nM) MAO-B
T1 construct: purchased Sigma-Aldrich
T1 sequence (P27338 1-520): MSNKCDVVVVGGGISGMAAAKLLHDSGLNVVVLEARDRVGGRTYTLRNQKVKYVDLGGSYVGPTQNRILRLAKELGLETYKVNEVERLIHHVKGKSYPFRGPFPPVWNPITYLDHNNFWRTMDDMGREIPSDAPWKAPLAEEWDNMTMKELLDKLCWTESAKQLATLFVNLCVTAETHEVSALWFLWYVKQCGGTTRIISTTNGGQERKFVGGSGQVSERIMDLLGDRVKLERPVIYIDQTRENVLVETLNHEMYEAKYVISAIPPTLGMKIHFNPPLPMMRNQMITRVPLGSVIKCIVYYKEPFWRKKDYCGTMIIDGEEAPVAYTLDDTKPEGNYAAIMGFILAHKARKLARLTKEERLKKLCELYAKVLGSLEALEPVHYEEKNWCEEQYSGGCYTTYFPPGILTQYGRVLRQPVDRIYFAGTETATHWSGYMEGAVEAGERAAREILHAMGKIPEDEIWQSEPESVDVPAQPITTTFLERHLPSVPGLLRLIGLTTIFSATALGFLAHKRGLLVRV
Procedure, shortened: (§1)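 8-pt 1:3 dilution series, final DMSO <1%; 30 min 37 °C preincubation w/ enzyme, 50 mM Na phosphate pH 7.4; + 200 uM Amplex Red, 1 U/mL HRP, substrate (MAO-A tyramine 0.5 mM; MAO-B benzylamine 1 mM; DAO putrescine 1 mM); fluor. rate 544/590 nm, 1-2 h; 4-param IC50.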

recombinant human VAP-1 = biological target: T2, recombinant human VAP-1 (Homo sapiens, UniProt Q16853); assay: Activity evaluation on recombinant human VAP-1 (Amplex Red/HRP-coupled hydrogen peroxide assay, benzylamine substrate); conditions: recombinant human VAP-1; 30 min preincubation at 37° C.; 1 mM benzylamine; read-out: Inhibitory Activity (IC50, nM) human VAP-1
T2 construct: purchased R&D systems
T2 sequence (Q16853 1-763): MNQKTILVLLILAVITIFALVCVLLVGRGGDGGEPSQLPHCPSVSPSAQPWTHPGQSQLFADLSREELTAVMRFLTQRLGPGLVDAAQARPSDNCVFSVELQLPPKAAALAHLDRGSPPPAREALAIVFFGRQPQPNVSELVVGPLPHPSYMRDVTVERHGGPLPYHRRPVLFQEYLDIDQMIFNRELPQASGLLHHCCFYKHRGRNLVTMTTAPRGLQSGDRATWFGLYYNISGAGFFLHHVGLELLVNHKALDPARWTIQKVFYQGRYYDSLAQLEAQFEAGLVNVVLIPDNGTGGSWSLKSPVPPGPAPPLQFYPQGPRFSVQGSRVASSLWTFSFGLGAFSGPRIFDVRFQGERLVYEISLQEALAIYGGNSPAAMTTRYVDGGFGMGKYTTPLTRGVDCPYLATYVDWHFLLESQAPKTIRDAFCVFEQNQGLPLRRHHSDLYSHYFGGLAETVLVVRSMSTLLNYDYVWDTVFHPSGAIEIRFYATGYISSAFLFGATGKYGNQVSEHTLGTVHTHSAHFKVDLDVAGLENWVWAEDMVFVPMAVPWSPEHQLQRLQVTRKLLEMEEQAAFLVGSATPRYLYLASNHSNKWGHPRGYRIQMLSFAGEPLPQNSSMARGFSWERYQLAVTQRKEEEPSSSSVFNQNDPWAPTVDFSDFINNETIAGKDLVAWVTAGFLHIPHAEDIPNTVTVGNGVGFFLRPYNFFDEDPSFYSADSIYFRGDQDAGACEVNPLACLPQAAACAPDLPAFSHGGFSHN
Procedure, shortened: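 Hydrogen peroxide from benzylamine (1 mM) oxidation by human recombinant VAP-1 detected via HRP-coupled Amplex Red (200 uM) fluorescence, kinetic over 1–2 h. Enzyme and compound preincubated 30 min at 37 °C, pH 7.4 phosphate; 8-point dose response, signal-rate decrease versus DMSO control fitted to four-parameter logistic for IC50.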

[2] = biological target: T3, recombinant human MAO-A (monoamine oxidase-A) (Homo sapiens, UniProt P21397); assay: Activity evaluation on recombinant human MAO-A (Amplex Red/HRP-coupled assay, 0.5 mM tyramine substrate); conditions: 0.5 mM tyramine, read-out: Inhibitory Activity (IC50, nM) MAO-A
T3 construct: purchased Sigma-Aldrich
T3 sequence (P21397 1-527): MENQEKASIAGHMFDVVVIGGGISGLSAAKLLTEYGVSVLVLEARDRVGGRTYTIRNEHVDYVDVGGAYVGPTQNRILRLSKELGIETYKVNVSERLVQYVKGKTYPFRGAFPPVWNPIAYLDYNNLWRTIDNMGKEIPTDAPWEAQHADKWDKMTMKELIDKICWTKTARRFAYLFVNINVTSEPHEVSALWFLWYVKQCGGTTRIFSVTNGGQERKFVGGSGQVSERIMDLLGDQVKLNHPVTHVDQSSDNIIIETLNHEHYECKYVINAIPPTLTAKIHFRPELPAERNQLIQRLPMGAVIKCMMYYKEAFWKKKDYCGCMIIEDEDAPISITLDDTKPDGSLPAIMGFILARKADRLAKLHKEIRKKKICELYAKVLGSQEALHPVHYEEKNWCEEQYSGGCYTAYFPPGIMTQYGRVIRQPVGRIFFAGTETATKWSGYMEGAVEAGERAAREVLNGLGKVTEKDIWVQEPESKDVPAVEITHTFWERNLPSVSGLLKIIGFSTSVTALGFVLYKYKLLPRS
Procedure, shortened: as §1

[3] = biological target: T4, recombinant human DAO (diamine oxidase) (Homo sapiens, UniProt P19801); assay: Activity evaluation on recombinant human DAO (Amplex Red/HRP-coupled assay, 1 mM putrescine substrate); conditions: 1 mM putrescine, read-out: Inhibitory Activity (IC50, nM) DAO
T4 construct: purchased R&D systems
T4 sequence (P19801 20-751): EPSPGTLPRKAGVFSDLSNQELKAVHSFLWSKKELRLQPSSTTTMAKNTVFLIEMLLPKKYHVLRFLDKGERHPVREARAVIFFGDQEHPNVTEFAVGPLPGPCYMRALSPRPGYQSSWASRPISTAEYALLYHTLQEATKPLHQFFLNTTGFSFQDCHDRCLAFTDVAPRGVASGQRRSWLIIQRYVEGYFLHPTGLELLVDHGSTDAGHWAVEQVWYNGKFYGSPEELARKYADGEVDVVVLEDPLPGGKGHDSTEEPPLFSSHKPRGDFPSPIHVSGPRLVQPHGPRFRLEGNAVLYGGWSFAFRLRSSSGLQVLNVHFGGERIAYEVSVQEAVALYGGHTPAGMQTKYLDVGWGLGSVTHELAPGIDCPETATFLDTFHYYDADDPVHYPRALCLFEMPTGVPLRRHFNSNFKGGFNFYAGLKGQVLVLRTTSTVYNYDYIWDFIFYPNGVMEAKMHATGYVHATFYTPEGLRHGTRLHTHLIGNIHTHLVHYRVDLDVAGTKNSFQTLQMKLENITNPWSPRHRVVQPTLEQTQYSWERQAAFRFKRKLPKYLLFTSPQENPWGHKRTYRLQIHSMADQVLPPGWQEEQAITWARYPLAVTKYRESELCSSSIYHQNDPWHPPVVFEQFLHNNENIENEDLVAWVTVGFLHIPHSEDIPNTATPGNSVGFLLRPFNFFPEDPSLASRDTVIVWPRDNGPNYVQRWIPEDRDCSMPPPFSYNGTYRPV
Procedure, shortened: as §1

Compound	IC50 [1]	IC50 (recombinant human VAP-1)	IC50 [2]	IC50 [3]
CNC(=O)c1ccc(-c2ccc(Cn3cnn(CC(CN)=C(F)F)c3=O)s2)cc1 [Example 104, 4-[5-[[1-[2-(aminomethyl)-3,3-difluoro-allyl]-5-oxo-1,2,4-triazol-4-yl]methyl]-2-thienyl]-N-methyl-benzamide trifluoroacetate]	> 10000 nM	0.5 nM	> 100000 nM	31000 nM
NCC(Cn1ncn(Cc2ccc(-c3ccc(N4CCNCC4)cc3)s2)c1=O)=C(F)F [Example 106, 2-[2-(aminomethyl)-3,3-difluoro-allyl]-4-[[5-(4-piperazin-1-ylphenyl)-2-thienyl]methyl]-1,2,4-triazol-3-one Ditrifluoroacetate]	> 100000 nM	4.7 nM	> 100000 nM	860 nM
NCC(Cn1ncn(Cc2ccc(-c3cccc(N4CCNCC4)c3)s2)c1=O)=C(F)F [Example 107, 2-[2-(aminomethyl)-3,3-difluoro-allyl]-4-[[5-(3-piperazin-1-ylphenyl)-2-thienyl]methyl]-1,2,4-triazol-3-one Ditrifluoroacetate]	46000 nM	3.5 nM	> 100000 nM	12000 nM
CC(=O)N1CCN(c2ccc(-c3ccc(Cn4cnn(CC(CN)=C(F)F)c4=O)s3)cc2)CC1 [Example 108, 4-[[5-[4-(4-acetylpiperazin-1-yl)phenyl]-2-thienyl]methyl]-2-[2-(aminomethyl)-3,3-difluoro-allyl]-1,2,4-triazol-3-one Trifluoroacetate]	> 10000 nM	2 nM	> 10000 nM	42000 nM
NCC(Cn1ncn(Cc2ccc(-c3ccc(C(=O)N4CCOCC4)cc3)s2)c1=O)=C(F)F [Example 109, 2-[2-(aminomethyl)-3,3-difluoro-allyl]-4-[[5-(4-morpholine-4-carbonyl)phenyl]-2-thienyl]methyl]-1,2,4-triazol-3-one trifluoroacetate]	> 100000 nM	1.4 nM	> 100000 nM	84000 nM
NCC(Cn1ncn(Cc2ccc(-c3cccc(-c4cc[nH]n4)c3)s2)c1=O)=C(F)F [Example 110, 2-[2-(aminomethyl)-3,3-difluoro-allyl]-4-[[5-[3-(1H-pyrazol-3-yl)phenyl]-2-thienyl]methyl]-1,2,4-triazol-3-one Trifluoroacetate]	8700 nM	1.3 nM	> 10000 nM	> 100000 nM
NCC(Cn1ncn(Cc2ccc(-c3ccc(C(F)(F)F)nc3)s2)c1=O)=C(F)F [Example 111, 2-[2-(aminomethyl)-3,3-difluoro-allyl]-4-[[5-[6-(trifluoromethyl)-3-pyridyl]-2-thienyl]methyl]-1,2,4-triazol-3-one Trifluoroacetate]	9400 nM	0.4 nM	> 100000 nM	7200 nM
CN(C)c1ccc(-c2ccc(Cn3cnn(CC(CN)=C(F)F)c3=O)s2)cn1 [Example 112, 2-[2-(aminomethyl)-3,3-difluoro-allyl]-4-[[5-[6-(dimethylamino)-3-pyridyl]-2-thienyl]methyl]-1,2,4-triazol-3-one Trifluoroacetate]	26000 nM	0.2 nM	> 100000 nM	> 100000 nM
NCC(Cn1ncn(Cc2ccc(-c3ccc(N4CCNCC4)nc3)s2)c1=O)=C(F)F [Example 114, 2-[2-(aminomethyl)-3,3-difluoro-allyl]-4-[[5-(6-piperazin-1-yl-3-pyridyl)-2-thienyl]methyl]-1,2,4-triazol-3-one Ditrifluoroacetate]	> 100000 nM	4.9 nM	> 100000 nM	970 nM

These reach a lower IC50 [1]. Values come first.

IC50 [1]	IC50 (recombinant human VAP-1)	IC50 [2]	IC50 [3]	Compound
5400 nM	0.4 nM	> 100000 nM	> 10000 nM	CS(=O)(=O)c1cccc(-c2ccc(Cn3cnn(CC(CN)=C(F)F)c3=O)s2)c1 [Example 102, 2-[2-(aminomethyl)-3,3-difluoro-allyl]-4-[[5-(3-methylsulfonylphenyl)-2-thienyl]methyl]-1,2,4-triazol-3-one Trifluoroacetate]
4200 nM	0.9 nM	> 100000 nM	22000 nM	CN(C)S(=O)(=O)c1cccc(-c2ccc(Cn3cnn(CC(CN)=C(F)F)c3=O)s2)c1 [Example 103, 3-[5-[[1-[2-(aminomethyl)-3,3-difluoro-allyl]-5-oxo-1,2,4-triazol-4-yl]methyl]-2-thienyl]-N,N-dimethyl-benzenesulfonamide trifluoroacetate]
6500 nM	1.5 nM	> 100000 nM	> 10000 nM	COc1cc(-c2ccc(Cn3cnn(CC(CN)=C(F)F)c3=O)s2)cc(OC)c1OC [Example 105, 2-[2-(aminomethyl)-3,3-difluoro-allyl]-4-[[5-(3,4,5-trimethoxyphenyl)-2-thienyl]methyl]-1,2,4-triazol-3-one Trifluoroacetate]
2700 nM	0.6 nM	> 100000 nM	19000 nM	COc1ccc(-c2ccc(Cn3cnn(CC(CN)=C(F)F)c3=O)s2)cn1 [Example 113, 2-[2-(aminomethyl)-3,3-difluoro-allyl]-4-[[5-(6-methoxy-3-pyridyl)-2-thienyl]methyl]-1,2,4-triazol-3-one Trifluoroacetate]

Source: US11168073B2, “3,3-difluoroallylamines or salts thereof and pharmaceutical compositions comprising the same” (YUHAN CORPORATION, priority 2018, dated 2021)
